Data as given in ChEMBL document CHEMBL3046894, “Synthesis and Herbicidal Activity of Pyrimidinyl Salicylic and Thiosalicylic Acids” (J Pestic Sci, 1996).
Calls of active or inactive are those of the source. The calls are words filed in the database; no cut-off is given here.

Experiments:
[1] = tested on: Echinochloa crus-galli; test: Pre-emergence herbicidal activity against Echinochloa crus-galli (barnyard grass) assessed as mortality at 100 g a.i/10 a; assay type: functional
[2] = tested on: Abutilon theophrasti; test: Pre-emergence herbicidal activity against Abutilon theophrasti (velvetleaf) assessed as mortality at 100 g a.i/10 a; assay type: functional
[3] = tested on: Xanthium strumarium; test: Pre-emergence herbicidal activity against Xanthium strumarium (cocklebur) assessed as mortality at 200 g a.i/10 a; assay type: functional, organism-based
[4] = tested on: Glycine max; test: Pre-emergence phytotoxicity against Glycine max (soybean) assessed as mortality at 200 g a.i/10 a; assay type: organism-based; conditions: in vivo, other
[5] = tested on: Echinochloa crus-galli; test: Pre-emergence herbicidal activity against Echinochloa crus-galli (barnyard grass) assessed as mortality at 200 g a.i/10 a; assay type: functional, organism-based
[6] = tested on: Ipomoea lacunosa; test: Pre-emergence herbicidal activity against Ipomoea lacunosa assessed as mortality at 100 g a.i/10 a; assay type: functional
[7] = tested on: Abutilon theophrasti; test: Pre-emergence herbicidal activity against Abutilon theophrasti (velvetleaf) assessed as mortality at 200 g a.i/10 a; assay type: functional
[8] = Pre-emergence phytotoxicity against Glycine max (soybean) assessed as mortality at 100 g a.i/10 a; assay type: organism-based; conditions: in vivo
[9] = tested on: Ipomoea lacunosa; test: Pre-emergence herbicidal activity against Ipomoea lacunosa assessed as mortality at 200 g a.i/10 a; assay type: functional
[10] = tested on: Xanthium strumarium; test: Pre-emergence herbicidal activity against Xanthium strumarium (cocklebur) assessed as mortality at 100 g a.i/10 a; assay type: functional
[11] = tested on: Ipomoea lacunosa; test: Post-emergence herbicidal activity against Ipomoea lacunosa assessed as mortality at 1.6 g a.i/10 a applied 11 days after germination as foliar spray; assay type: functional; conditions: 264 h
[12] = tested on: Echinochloa crus-galli; test: Pre-emergence herbicidal activity against Echinochloa crus-galli (barnyard grass) assessed as mortality per 10 acre; assay type: functional
[13] = tested on: Echinochloa crus-galli; test: Post-emergence herbicidal activity against Echinochloa crus-galli (barnyard grass) assessed as mortality at 6.3 g a.i/10 a applied 11 days after germination as foliar spray; assay type: functional; conditions: 264 h
[14] = tested on: Persicaria nodosa; test: Pre-emergence herbicidal activity against Persicaria nodosa assessed as mortality per 10 acre; assay type: functional
[15] = tested on: Persicaria nodosa; test: Pre-emergence herbicidal activity against Persicaria nodosa assessed as growth inhibition at 25 g a.i/10 a; assay type: functional, organism-based
[16] = tested on: Gossypium hirsutum; test: Post-emergence phytotoxicity against Gossypium hirsutum (cotton) assessed as mortality at 6.3 g a.i/10 a applied 11 days after germination as foliar spray; assay type: organism-based; conditions: in vivo, other, 264 h
[17] = tested on: Xanthium strumarium; test: Post-emergence herbicidal activity against Xanthium strumarium (cocklebur) assessed as mortality at 6.3 g a.i/10 a applied 11 days after germination as foliar spray; assay type: functional; conditions: 264 h
[18] = tested on: Glycine max; test: Pre-emergence phytotoxicity against Glycine max (soybean) assessed as mortality at 1.6 g a.i/10 a; assay type: organism-based; conditions: in vivo, other
[19] = tested on: Echinochloa crus-galli; test: Pre-emergence herbicidal activity against Echinochloa crus-galli (barnyard grass) assessed as mortality at 6.3 g a.i/10 a; assay type: functional; conditions: Echinochloa crus-galli, pre-emergence
[20] = tested on: Gossypium hirsutum; test: Pre-emergence phytotoxicity against Gossypium hirsutum (cotton) assessed as mortality at 1.6 g a.i/10 a; assay type: organism-based; conditions: in vivo, other
[21] = tested on: Amaranthus retroflexus; test: Post-emergence herbicidal activity against Amaranthus retroflexus assessed as mortality per 10 acre; assay type: functional
[22] = tested on: Echinochloa crus-galli; test: Post-emergence herbicidal activity against Echinochloa crus-galli (barnyard grass) assessed as growth inhibition at 25 g a.i/10 a applied 11 days after germination as foliar spray; assay type: functional, organism-based
[23] = tested on: Amaranthus retroflexus; test: Pre-emergence herbicidal activity against Amaranthus retroflexus assessed as mortality per 10 acre; assay type: functional
[24] = Pre-emergence phytotoxicity against Zea mays (maize) assessed as mortality at 1.6 g a.i/10 a; assay type: organism-based; conditions: in vivo, 1.6 g a.i/10 a, read-out: mortality
[25] = tested on: Amaranthus retroflexus; test: Pre-emergence herbicidal activity against Amaranthus retroflexus assessed as growth inhibition at 25 g a.i/10 a; assay type: functional, organism-based
[26] = tested on: Chenopodium album; test: Pre-emergence herbicidal activity against Chenopodium album assessed as growth inhibition at 25 g a.i/10 a; assay type: functional, organism-based
[27] = tested on: Xanthium strumarium; test: Post-emergence herbicidal activity against Xanthium strumarium (cocklebur) assessed as mortality per 10 acre; assay type: functional
[28] = tested on: Abutilon theophrasti; test: Pre-emergence herbicidal activity against Abutilon theophrasti (velvetleaf) assessed as mortality at 6.3 g a.i/10 a; assay type: functional; conditions: Abutilon theophrasti, pre-emergence
[29] = tested on: Persicaria nodosa; test: Post-emergence herbicidal activity against Persicaria nodosa assessed as growth inhibition at 25 g a.i/10 a applied 11 days after germination as foliar spray; assay type: functional, organism-based
[30] = tested on: Gossypium hirsutum; test: Post-emergence phytotoxicity against Gossypium hirsutum (cotton) assessed as mortality per 10 acre; assay type: organism-based; conditions: in vivo
[31] = tested on: Gossypium hirsutum; test: Pre-emergence phytotoxicity against Gossypium hirsutum (cotton) assessed as mortality per 10 acre; assay type: organism-based; conditions: in vivo
[32] = tested on: Gossypium hirsutum; test: Post-emergence phytotoxicity against Gossypium hirsutum (cotton) assessed as mortality at 1.6 g a.i/10 a applied 11 days after germination as foliar spray; assay type: organism-based; conditions: in vivo, other, 264 h
[33] = tested on: Amaranthus retroflexus; test: Post-emergence herbicidal activity against Amaranthus retroflexus assessed as growth inhibition at 25 g a.i/10 a applied 11 days after germination as foliar spray; assay type: functional, organism-based
[34] = tested on: Chenopodium album; test: Post-emergence herbicidal activity against Chenopodium album assessed as growth inhibition at 25 g a.i/10 a applied 11 days after germination as foliar spray; assay type: functional, organism-based
[35] = Pre-emergence phytotoxicity against Glycine max (soybean) assessed as mortality at 6.3 g a.i/10 a; assay type: organism-based; conditions: in vivo, 6.3 g a.i/10 a, read-out: mortality
[36] = tested on: Ipomoea lacunosa; test: Post-emergence herbicidal activity against Ipomoea lacunosa assessed as mortality at 6.3 g a.i/10 a applied 11 days after germination as foliar spray; assay type: functional; conditions: 264 h
[37] = tested on: Gossypium hirsutum; test: Pre-emergence phytotoxicity against Gossypium hirsutum (cotton) assessed as mortality at 6.3 g a.i/10 a; assay type: organism-based; conditions: in vivo, other
[38] = tested on: Cyperus iria; test: Post-emergence herbicidal activity against Cyperus iria assessed as growth inhibition at 25 g a.i/10 a applied 11 days after germination as foliar spray; assay type: functional, organism-based
[39] = Post-emergence phytotoxicity against Glycine max (soybean) assessed as mortality at 1.6 g a.i/10 a applied 11 days after germination as foliar spray; assay type: organism-based; conditions: in vivo, 1.6 g a.i/10 a
[40] = tested on: Abutilon theophrasti; test: Post-emergence herbicidal activity against Abutilon theophrasti (velvetleaf) assessed as mortality at 1.6 g a.i/10 a applied 11 days after germination as foliar spray; assay type: functional; conditions: 264 h
[41] = tested on: Echinochloa crus-galli; test: Pre-emergence herbicidal activity against Echinochloa crus-galli (barnyard grass) assessed as growth inhibition at 25 g a.i/10 a; assay type: functional, organism-based
[42] = tested on: Ipomoea lacunosa; test: Pre-emergence herbicidal activity against Ipomoea lacunosa assessed as mortality at 1.6 g a.i/10 a; assay type: functional; conditions: Ipomoea lacunosa, pre-emergence
[43] = tested on: Ipomoea lacunosa; test: Pre-emergence herbicidal activity against Ipomoea lacunosa assessed as mortality per 10 acre; assay type: functional
[44] = Post-emergence phytotoxicity against Zea mays (maize) assessed as mortality at 1.6 g a.i/10 a applied 11 days after germination as foliar spray; assay type: organism-based; conditions: in vivo, 1.6 g a.i/10 a
[45] = tested on: Abutilon theophrasti; test: Post-emergence herbicidal activity against Abutilon theophrasti (velvetleaf) assessed as mortality at 6.3 g a.i/10 a applied 11 days after germination as foliar spray; assay type: functional; conditions: 264 h
[46] = tested on: Xanthium strumarium; test: Pre-emergence herbicidal activity against Xanthium strumarium (cocklebur) assessed as mortality per 10 acre; assay type: functional
[47] = tested on: Ipomoea lacunosa; test: Post-emergence herbicidal activity against Ipomoea lacunosa assessed as mortality per 10 acre; assay type: functional
[48] = tested on: Digitaria sanguinalis; test: Post-emergence herbicidal activity against Digitaria sanguinalis (hairy crabgrass) assessed as growth inhibition at 25 g a.i/10 a applied 11 days after germination as foliar spray; assay type: functional, organism-based
[49] = tested on: Persicaria nodosa; test: Post-emergence herbicidal activity against Persicaria nodosa assessed as mortality per 10 acre; assay type: functional
[50] = tested on: Cyperus iria; test: Pre-emergence herbicidal activity against Cyperus iria assessed as growth inhibition at 25 g a.i/10 a; assay type: functional, organism-based
[51] = tested on: Digitaria sanguinalis; test: Pre-emergence herbicidal activity against Digitaria sanguinalis (hairy crabgrass) assessed as growth inhibition at 25 g a.i/10 a; assay type: functional, organism-based
[52] = tested on: Echinochloa crus-galli; test: Post-emergence herbicidal activity against Echinochloa crus-galli (barnyard grass) assessed as mortality per 10 acre; assay type: functional

For CN(C)C(=O)Nc1cccc(C(F)(F)F)c1 [FLUOMETURON], which mortality at 1000 g/ha [1] is on record?
The mortality at 1000 g/ha was < 5%.

What about the mortality at 1000 g/ha [2] of the same compound?
The mortality at 1000 g/ha was < 5%.

What about the Activity [3] of the same compound?
The Activity was “inactive”.

And the Activity [4]?
The Activity was “Toxic”.

What about the Activity [5] of the same compound?
The Activity was “Active”.

And the mortality at 1000 g/ha [6]?
Its mortality at 1000 g/ha is < 5%.

And the mortality at 2000 g/ha [7]?
The mortality at 2000 g/ha was < 5%.

What about the mortality [8] of the same compound?
Its mortality is < 5%.

What about the mortality at 2000 g/ha [9] of the same compound?
The mortality at 2000 g/ha was < 5%.

What about the mortality at 1000 g/ha [10] of the same compound?
The mortality at 1000 g/ha was < 5%.

What does the source list for COc1cc(OC)nc(Oc2cccc(Br)c2C(=O)O)n1?
mortality at 16 g/ha [11]: > 90%; ED90 [12]: 1.5 gAi; mortality at 63 g/ha [13]: > 90%; ED90 [14]: 0.4 gAi; growth inhibition (GI) [15]: Active; Activity [16]: Toxic; mortality at 63 g/ha [17]: > 90%; Activity [18]: Toxic; mortality at 63 g/ha [19]: > 90%; Activity [20]: Non-toxic; ED90 [21]: 0.2 gAi; growth inhibition (GI) [22]: Active; ED90 [23]: 0.4 gAi; mortality [24]: > 90%; growth inhibition (GI) [25]: Active; growth inhibition (GI) [26]: Active; ED90 [27]: 1.5 gAi; mortality at 63 g/ha [28]: > 90%; growth inhibition (GI) [29]: Active; ED20 [30]: 0.2 gAi; ED20 [31]: Toxic; Activity [32]: Toxic; growth inhibition (GI) [33]: Active; growth inhibition (GI) [34]: Active; mortality [35]: > 90%; mortality at 63 g/ha [36]: > 90%; Activity [37]: Non-toxic; growth inhibition (GI) [38]: Active; mortality at 264 h [39]: > 90%; mortality at 16 g/ha [40]: > 90%; growth inhibition (GI) [41]: Active; mortality at 16 g/ha [42]: < 5%; ED90 [43]: 25 gAi; mortality at 264 h [44]: > 90%; mortality at 63 g/ha [45]: > 90%; ED90 [46]: 25 gAi; ED90 [47]: 0.8 gAi; growth inhibition (GI) [48]: Active; ED90 [49]: 0.2 gAi; growth inhibition (GI) [50]: Active; growth inhibition (GI) [51]: Active; ED90 [52]: inactive
